In brackets after ≈: the same amount, converted by molar mass.
How the values were obtained:
Test in all cases: In vitro determination of minimum inhibitory concentration (MIC), serial dilution
Assay type in all cases: cell-based
[1] = system: Absidia ramosa; conditions: Lichtheimia ramosa, 336 h, pH 6, Absidia ramosa; pH 6.0, 22° C., 14 days
Protocol: (§1) The antimycotic activities of the compounds were measured by in vitro determination of the minimum inhibitory concentration (MIC) for yeasts, molds and dermatophytes.
(§2) 6 dermatophytes, 2 yeasts and 4 molds were used for testing with fungi, as follows:
(§3) The minimum inhibitory concentration (MIC) was determined in serial dilution tests in test tubes. The volume of the liquid nutrient medium in each test tube was 4.5 ml.
(§4) The substances were dissolved in DMSO and diluted with sterile distilled water to 10 concentrations (100, 50, 25, 12.5, 6.25, 3.12, 1.56, 0.78, 0.39 and 0.19 μg/ml). 0.5 ml of each of these dilution steps was added to liquid nutrient medium. Thus, a constant concentration of solvent in all the nutrient media was ensured, irrespective of the active compound concentration.
(§5) A comparison solution which contained only the solvent in appropriate concentration was included when carrying out each of the tests.
(§6) The individual strains were maintained on Sabouraud/beerwort agar slants and, before they were used in a test, they underwent a passage on a modified Sabouraud liquid nutrient medium. The strains were then harvested, washed and converted into a suspension of McFaerland 3 in the case of yeasts and molds and of McFaerland 4-5 in the case of dermatophytes.
(§7) The amount of material inoculated (inoculum) was 100 μl/test tube (inoculated densities: yeasts about 10^3 /ml, molds about 10^4 /ml, dermatophytes about 10^4 /ml). The pH of the liquid nutrient medium was 6.0. After inoculation had taken place the fungi were incubated at 22° C. for 14 days.
(§8) The MIC was then determined. The concentration step at which growth was no longer visible on macroscopic inspection was used for the determination of the MIC. The comparison substance used was 1-(2-(2,4-dichlorophenyl)-2-(2,4-dichlorophenylmethoxy)ethyl)-1H-imidazole(compound A).

[2] = system: Aspergillus fumigatus; conditions: 20160 min, pH 6
Protocol: as §1, §2, §3, §4, §5, §6, §7, §8

[3] = system: Candida albicans; conditions: 336 h, pH 6, Candida albicans, pH 6.0, 22° C., 14 days, read-out: MIC C.alb
Protocol: as §1, §2, §3, §4, §5, §6, §7, §8

[4] = system: Candida tropicalis; conditions: 336 h, pH 6, Candida tropicalis, pH 6.0, 22° C., 14 days, read-out: MIC C.trop
Protocol: as §1, §2, §3, §4, §5, §6, §7, §8

[5] = system: Epidermophyton floccosum; conditions: 336 h, pH 6, Epidermophyton floccosum, pH 6.0, 22° C., 14 days
Protocol: as §1, §2, §3, §4, §5, §6, §7, §8

[6] = system: Microsporum canis; conditions: 336 h, pH 6, Microsporum canis, pH 6.0, 22° C., 14 days
Protocol: as §1, §2, §3, §4, §5, §6, §7, §8

[7] = system: Microsporum gypseum; conditions: Nannizzia gypsea, 336 h, pH 6, Microsporum gypseum; pH 6.0, 22° C., 14 days; read-out: MIC Mi.gyp
Protocol: as §1, §2, §3, §4, §5, §6, §7, §8

[8] = system: Mucor mucedo minus; conditions: Mucor mucedo, 336 h, pH 6, Mucor mucedo minus; pH 6.0, 22° C., 14 days
Protocol: as §1, §2, §3, §4, §5, §6, §7, §8

[9] = system: Mucor mucedo plus; conditions: Mucor mucedo, 336 h, pH 6, Mucor mucedo plus; pH 6.0, 22° C., 14 days
Protocol: as §1, §2, §3, §4, §5, §6, §7, §8

[10] = system: Trichophyton mentagrophytes; conditions: 336 h, pH 6, Trichophyton mentagrophytes, pH 6.0, 22° C., 14 days
Protocol: as §1, §2, §3, §4, §5, §6, §7, §8

[11] = system: Trichophyton rubrum; conditions: 336 h, pH 6, Trichophyton rubrum, pH 6.0, 22° C., 14 days
Protocol: as §1, §2, §3, §4, §5, §6, §7, §8

[12] = system: Trichophyton verrucosum; conditions: 336 h, pH 6, Trichophyton verrucosum, pH 6.0, 22° C., 14 days
Protocol: as §1, §2, §3, §4, §5, §6, §7, §8

Compound	MIC [1]	MIC Asp.fu. [2]	MIC [3]	MIC [4]	MIC [5]	MIC [6]	MIC [7]	MIC [8]	MIC [9]	MIC [10]	MIC [11]	MIC [12]
CN(CCCOc1ccc(I)cc1)C(Cn1ccnc1)c1ccc(Cl)cc1Cl (stereo not drawn) [Compound 65]	3.12 mg/L (≈ 5.88 µM)	3,12 μg/ml	3.12 mg/L (≈ 5.88 µM)	1.56 mg/L (≈ 2.94 µM)	3.12 mg/L (≈ 5.88 µM)	1.56 mg/L (≈ 2.94 µM)	3.12 mg/L (≈ 5.88 µM)	6.25 mg/L (≈ 11.8 µM)	6.25 mg/L	6.25 mg/L (≈ 11.8 µM)	0.78 mg/L (≈ 1.47 µM)	1.56 mg/L (≈ 2.94 µM)
COc1ccc(SCCNC(Cn2ccnc2)c2ccc(Cl)cc2Cl)cc1 (stereo not drawn) [Compound 39]	25 mg/L (≈ 59.2 µM)	12,5 μg/ml	25 mg/L (≈ 59.2 µM)	12.5 mg/L (≈ 29.6 µM)	12.5 mg/L (≈ 29.6 µM)	12.5 mg/L (≈ 29.6 µM)	6.25 mg/L (≈ 14.8 µM)	12.5 mg/L (≈ 29.6 µM)	12.5 mg/L	6.25 mg/L (≈ 14.8 µM)	6.25 mg/L (≈ 14.8 µM)	6.25 mg/L (≈ 14.8 µM)
Clc1ccc(SCCNC(Cn2ccnc2)c2ccc(Cl)cc2Cl)cc1 (stereo not drawn) [Compound 34]	6.25 mg/L (≈ 14.6 µM)	6,25 μg/ml	3.12 mg/L (≈ 7.31 µM)	3.12 mg/L (≈ 7.31 µM)	0.78 mg/L (≈ 1.83 µM)	0.78 mg/L (≈ 1.83 µM)	0.78 mg/L (≈ 1.83 µM)	3.12 mg/L (≈ 7.31 µM)	3.12 mg/L	0.78 mg/L (≈ 1.83 µM)	0.78 mg/L (≈ 1.83 µM)	0.78 mg/L (≈ 1.83 µM)
Clc1ccc(C(Cn2ccnc2)NCCCSc2ccc3ccccc3c2)c(Cl)c1 (stereo not drawn) [Compound 114]	6.25 mg/L (≈ 13.7 µM)	0,78 μg/ml	3.12 mg/L (≈ 6.84 µM)	6.25 mg/L (≈ 13.7 µM)	3.12 mg/L (≈ 6.84 µM)	0.78 mg/L (≈ 1.71 µM)	3.12 mg/L (≈ 6.84 µM)	3.12 mg/L (≈ 6.84 µM)	6.25 mg/L	3.12 mg/L (≈ 6.84 µM)	1.56 mg/L (≈ 3.42 µM)	1.56 mg/L (≈ 3.42 µM)
Cc1ccc(SCCCNC(Cn2ccnc2)c2ccc(Cl)cc2Cl)cc1 (stereo not drawn) [Compound 92]	6.25 mg/L (≈ 14.9 µM)	0,78 μg/ml	12.5 mg/L (≈ 29.7 µM)	12.5 mg/L (≈ 29.7 µM)	0.78 mg/L (≈ 1.86 µM)	3.12 mg/L (≈ 7.42 µM)	0.78 mg/L (≈ 1.86 µM)	3.12 mg/L (≈ 7.42 µM)	0.78 mg/L	0.78 mg/L (≈ 1.86 µM)	0.78 mg/L (≈ 1.86 µM)	0.78 mg/L (≈ 1.86 µM)
Clc1ccc(C(Cn2ccnc2)NCCCSc2c(Cl)cccc2Cl)c(Cl)c1 (stereo not drawn) [Compound 112]	12.5 mg/L (≈ 26.3 µM)	12,5 μg/ml	6.25 mg/L (≈ 13.2 µM)	6.25 mg/L (≈ 13.2 µM)	3.12 mg/L (≈ 6.56 µM)	12.5 mg/L (≈ 26.3 µM)	3.12 mg/L (≈ 6.56 µM)	12.5 mg/L (≈ 26.3 µM)	6.25 mg/L	3.12 mg/L (≈ 6.56 µM)	3.12 mg/L (≈ 6.56 µM)	3.12 mg/L (≈ 6.56 µM)

— patent US4812465A, “Triazole derivatives for use as antimycotic agents” (CL Pharma Aktiengesellschaft, priority 1986, dated 1989)
